Results on two compounds are retold here after patent US20070264679A1, “Method for analyzing the activity of lipoxygenase using a water-soluble substrate” (Chungnam National University Industry Collaboration …, priority 2006, published 2007).

Experiment [1] has as its target T1, Porcine leukocyte LOX (Sus scrofa, UniProt P16469).
T1 construct: purchased Cayman Chemical Co. (Ann Arbor, Mich., USA)
T1 sequence (P16469 1-663): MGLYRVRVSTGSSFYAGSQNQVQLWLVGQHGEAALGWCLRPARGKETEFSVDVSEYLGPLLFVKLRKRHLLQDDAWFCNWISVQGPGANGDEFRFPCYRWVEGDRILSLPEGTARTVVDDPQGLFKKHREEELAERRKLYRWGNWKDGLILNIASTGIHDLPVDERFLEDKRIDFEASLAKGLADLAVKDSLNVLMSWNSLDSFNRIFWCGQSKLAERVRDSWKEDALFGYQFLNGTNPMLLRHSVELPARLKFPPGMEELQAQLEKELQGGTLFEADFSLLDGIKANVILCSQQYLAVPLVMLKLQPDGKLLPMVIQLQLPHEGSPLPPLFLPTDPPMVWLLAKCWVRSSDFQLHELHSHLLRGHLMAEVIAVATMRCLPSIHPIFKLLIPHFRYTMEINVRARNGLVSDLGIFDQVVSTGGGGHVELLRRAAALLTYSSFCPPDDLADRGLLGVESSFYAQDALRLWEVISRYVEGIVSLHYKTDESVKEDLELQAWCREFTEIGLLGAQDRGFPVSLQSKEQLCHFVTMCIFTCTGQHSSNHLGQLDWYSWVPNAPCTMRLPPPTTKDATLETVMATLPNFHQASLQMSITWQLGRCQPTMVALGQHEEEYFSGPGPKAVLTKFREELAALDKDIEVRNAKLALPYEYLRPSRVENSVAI
The experiment can be described thus: Kinetics of oxygenation of docosahexaenoyl-lysoPC or docosahexaenoic acid by leukocyte LOX. Type of experiment: biochemical. The following applies: porcine leukocyte LOX 2 units/ml, 100 mM phosphate buffer pH 7.4, 5 mM EDTA. The procedure:
Porcine leukocyte LOX (2 units/ml) was incubated with each substrate docosahexaenoyl-lysoPC or docosahexaenoic acid of various concentrations in 500 μl of 100 mM phosphate buffer (pH 7.4) containing 5 mM EDTA and 0.03% Tween 20 at 25° C.

Experiment [2] concerns the target T2, soybean LOX-1 (Glycine max, UniProt P08170).
T2 construct: purchased Sigma-Aldrich Corp (St. Louis, Mo., USA) lipoxidase Type I-B
T2 sequence (P08170 1-839): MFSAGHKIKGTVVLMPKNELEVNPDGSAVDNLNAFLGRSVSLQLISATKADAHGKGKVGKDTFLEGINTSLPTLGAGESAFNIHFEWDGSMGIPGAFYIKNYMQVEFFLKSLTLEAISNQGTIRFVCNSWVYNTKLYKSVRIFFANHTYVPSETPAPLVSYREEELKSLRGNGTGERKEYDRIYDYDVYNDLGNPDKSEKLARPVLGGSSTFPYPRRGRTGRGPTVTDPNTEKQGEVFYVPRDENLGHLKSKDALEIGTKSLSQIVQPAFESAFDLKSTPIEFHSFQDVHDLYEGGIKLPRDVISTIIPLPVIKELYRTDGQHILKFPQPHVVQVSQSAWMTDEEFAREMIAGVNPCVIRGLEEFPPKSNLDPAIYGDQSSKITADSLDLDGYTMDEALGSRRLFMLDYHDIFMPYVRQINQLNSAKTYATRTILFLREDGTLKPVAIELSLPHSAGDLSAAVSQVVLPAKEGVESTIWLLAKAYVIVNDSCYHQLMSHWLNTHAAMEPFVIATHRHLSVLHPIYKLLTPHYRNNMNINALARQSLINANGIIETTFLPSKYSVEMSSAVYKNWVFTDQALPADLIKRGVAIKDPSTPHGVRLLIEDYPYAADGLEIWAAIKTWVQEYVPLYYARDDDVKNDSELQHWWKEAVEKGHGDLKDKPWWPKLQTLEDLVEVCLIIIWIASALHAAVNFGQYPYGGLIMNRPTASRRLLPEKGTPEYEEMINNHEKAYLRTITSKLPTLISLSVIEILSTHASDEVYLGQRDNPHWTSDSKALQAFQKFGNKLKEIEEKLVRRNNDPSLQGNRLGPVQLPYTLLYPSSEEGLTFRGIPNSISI
The experiment can be described thus: Kinetics of oxygenation of docosahexaenoic acid derivatives by soybean LOX-1. Type of experiment: biochemical. The following applies: soybean LOX-1 2.5 units/ml, 50 mM borax buffer pH 9.0, 25° C. How it is done: Soybean LOX-1 (2.5 units/ml) was incubated with docosahexaenoyl-lysoPC, didocosahexaenoyl-lysoPC or docosahexaenoic acid of various concentrations in 500 μl of 50 mM borax buffer (pH 9.0) at 25° C. Values were expressed as means ±S.D. of results from at least three independent experiments.

The target in experiment [3] is T2, soybean LOX-1. The experiment can be described thus: Kinetics of oxygenation of arachidonic acid or arachidonoyl-lysophospholipids by soybean LOX-1. Type of experiment: biochemical. The following applies: soybean LOX-1 2.5 units/ml; for Vm: 50 mM borax buffer pH 9.0, unit = one nanomole conjugated diene per min. The procedure: (§1) Activities of various LOXs were monitored by measuring the increase in absorbance at 234 nm due to the formation of hydroperoxide (ε234=25,000 M^−1 cm^−1) at 25° C. as described before (Smith et al, J. Biol. Chem. 247 (1972) 1038-1047). One unit is defined as the amount of LOXs that can produce one nanomole of conjugated diene per min. The reaction mixture (500 μl) included reticulocyte LOX (2 units/ml) in 50 mM phosphate buffer (pH 7.4), porcine leukocyte LOX (1 unit/ml) in 100 mM phosphate buffer (pH 7.5) containing 5 mM EDTA and 0.03% Tween 20, or soybean LOX-1 (2.5 units/ml) in 50 mM borax buffer (pH 9.0) at 25° C. The reactions were started by including each substrate (100 μM) into the above reaction mixture.
(§2) Reticulocyte LOX (2 units/ml), leukocyte LOX (1 units/ml) or soybean LOX-1 (2.5 units/ml) was incubated with each arachidonoyl derivative substrate of various concentrations as described above. The values of kinetic parameters were obtained according to Lineweaver Burke plot analyses as described before (Barroso et al, J. Chromatogr. B. Analyt. Technol. Biomed. Life. Sci. 814 (2005) 21-28).

Experiment [4] deals with T3, Rabbit reticulocyte 15-lipoxygenase (reticulocyte LOX) (Oryctolagus cuniculus, UniProt P12530).
T3 construct: purchased Biomol Inc. (Plymouth Meeting, Pa., USA)
T3 sequence (P12530 1-663): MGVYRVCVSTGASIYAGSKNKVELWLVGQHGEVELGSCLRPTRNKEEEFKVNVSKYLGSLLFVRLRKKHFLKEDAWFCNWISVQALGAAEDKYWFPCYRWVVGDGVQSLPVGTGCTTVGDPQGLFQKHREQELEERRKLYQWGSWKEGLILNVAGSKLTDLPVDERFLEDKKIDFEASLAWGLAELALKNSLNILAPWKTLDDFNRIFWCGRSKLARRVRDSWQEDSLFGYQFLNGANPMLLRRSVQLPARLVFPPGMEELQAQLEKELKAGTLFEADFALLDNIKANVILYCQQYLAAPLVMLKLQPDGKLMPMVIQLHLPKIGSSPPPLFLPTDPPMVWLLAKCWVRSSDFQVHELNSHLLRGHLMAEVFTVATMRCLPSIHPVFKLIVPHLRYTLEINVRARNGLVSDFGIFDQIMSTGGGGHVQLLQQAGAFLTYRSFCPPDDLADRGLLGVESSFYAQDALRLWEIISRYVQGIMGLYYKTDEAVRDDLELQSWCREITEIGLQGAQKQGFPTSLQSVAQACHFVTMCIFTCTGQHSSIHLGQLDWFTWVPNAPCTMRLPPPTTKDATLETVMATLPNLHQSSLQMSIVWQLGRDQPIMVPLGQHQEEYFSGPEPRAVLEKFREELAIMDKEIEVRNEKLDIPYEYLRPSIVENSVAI
The experiment is described as follows: Oxygenation of arachidonoyl lysophospholipids by reticulocyte LOX. Type of experiment: biochemical. The following applies: reticulocyte LOX 2 units/ml, 50 mM phosphate buffer pH 7.4. How it is done:
as §1, §2
It is noteworthy that the efficacy of arachidonoyl-lysoPC as a substrate for leukocyte LOX was approximately 10-fold greater than that of arachidonic acid. In an additional study, the oxygenation of arachidonoyl-lysoPC or arachidonoyl-lysoPA by reticulocyte LOX was examined. […]

Experiment [5] deals with T4, Leukocyte 12-lipoxygenase (leukocyte LOX) (Sus scrofa, UniProt P16469).
T4 construct: purchased Cayman Chemical Co. (Ann Arbor, Mich., USA)
T4 sequence (P16469 1-663): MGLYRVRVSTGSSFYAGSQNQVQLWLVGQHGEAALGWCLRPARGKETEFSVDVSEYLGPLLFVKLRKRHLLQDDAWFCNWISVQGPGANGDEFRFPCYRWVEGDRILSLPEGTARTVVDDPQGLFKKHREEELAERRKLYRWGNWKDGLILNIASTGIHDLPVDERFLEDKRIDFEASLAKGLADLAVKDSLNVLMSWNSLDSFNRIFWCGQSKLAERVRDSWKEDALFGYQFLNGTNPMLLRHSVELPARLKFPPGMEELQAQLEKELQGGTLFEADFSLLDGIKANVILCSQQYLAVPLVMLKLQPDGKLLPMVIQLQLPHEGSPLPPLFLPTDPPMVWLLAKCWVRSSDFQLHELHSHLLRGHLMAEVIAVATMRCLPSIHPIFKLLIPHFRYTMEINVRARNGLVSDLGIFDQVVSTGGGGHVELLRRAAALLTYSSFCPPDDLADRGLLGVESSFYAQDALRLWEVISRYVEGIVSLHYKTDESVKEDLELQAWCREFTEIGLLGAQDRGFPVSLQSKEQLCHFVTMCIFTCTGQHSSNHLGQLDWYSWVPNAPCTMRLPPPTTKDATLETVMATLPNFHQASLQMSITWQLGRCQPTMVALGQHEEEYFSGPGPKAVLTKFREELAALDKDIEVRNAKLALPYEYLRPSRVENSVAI
The experiment can be described thus: Kinetics of oxygenation of arachidonic acid or arachidonoyl-lysophospholipids by leukocyte LOX. Type of experiment: biochemical, porcine. The following applies: leukocyte LOX 1 unit/ml, 100 mM phosphate buffer pH 7.5, 5 mM EDTA; for Vm: 0.03% Tween 20. How it is done:
as §1, §2

On to `CC/C=C\C/C=C\C/C=C\C/C=C\C/C=C\C/C=C\CCC(=O)OCC(O)COP(=O)([O-])OCC[N+](C)(C)C` (centres unmarked) [Docosahexaenoyl-lysoPC, 1-docosahexenoyl lysophosphatidylcholine], for which the Vm in experiment [1] (0.03% Tween 20) amounted to 77.2 ± 2.8 units/mg; in experiment [2], 104.2 ± 5.2 units/μg. Besides, the Michaelis-Menten constant (Km) came out at 3.4 ± 1.8 µM in experiment [1] (0.03% Tween 20, 25° C.) and 2.2 ± 0.6 µM in experiment [2].
With `CCCCC/C=C\C/C=C\C/C=C\C/C=C\CCCC(=O)OCC(O)COP(=O)(O)O` (centres unmarked) [Arachidonoyl-lysoPA, 1-arachidonoyl lysophosphatidic acid], the Michaelis constant (Km) in experiment [3] (50 mM borax buffer pH 9.0, 25° C.) came to 15.4 µM; in experiment [5] (0.03% Tween 20, 25° C.), 8.6 µM. The Vm in experiment [3] amounted to 147.8 ± 2.3 units/μg; in experiment [3] (listed as arachidonoyl-lysoPA), 147.8 units/μg; in experiment [5], 33.5 ± 2.9 units/mg; in experiment [5] (listed as arachidonoyl-lysoPA) it was 33.5 units/mg. Also, in experiment [4], the “Vm/Km value in reticulocyte LOX-catalyzed oxygenation compared with arachidonic acid” value is on record as “somewhat greater than that of arachidonic acid”.

Broadly, the Km is the concentration of substrate that gives half-maximal velocity.
